We go through seven compounds from PubChem BioAssay (NCI).

Several values for one entry are separate records, joined by “and”; a condition that tells them apart may be missing. Equal entries are not always repeated.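 Grown in 96-well plates, cells were treated for 48 hours with each compound at five concentrations. Insufficient inhibition: endpoint recorded as highest concentration tested. GI50: concentration for 50% inhibition of growth. TGI is the concentration that stops growth completely.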

Test systems include A498 renal; KM12 colon; MCF7 breast; NCI-H23 lung; NCI/ADR-RES ovarian; RPMI-8226 leukemia; RXF 393 renal; SNB-19 CNS; SR leukemia; UO-31 renal.
Common to all, as to test: NCI anticancer screen, dose series, 48 h

For the compound `Oc1ccccc1C=Nc1nc(OCc2ccccc2)nc2[nH]ncc12`, the GI50 with A498 renal was 20.8 µM; in the assay with KM12 colon, 20.4 µM; with MCF7 breast, 15.5 µM; in the assay on NCI-H23 lung, 15.4 µM; with NCI/ADR-RES ovarian, 28.5 µM; with RPMI-8226 leukemia it was 14.4 µM. Also, the GI50 in the assay on RXF 393 renal was 4.56 µM; in the assay on SNB-19 CNS, 37.7 µM; in the assay with SR leukemia it was 13.1 µM; in the assay with UO-31 renal it was 30.5 µM. Besides, the TGI is 56.9 µM with A498 renal; 47.1 µM with KM12 colon; 35.2 µM with MCF7 breast; 79.7 µM with NCI-H23 lung; 78.8 µM with NCI/ADR-RES ovarian; 43.5 µM with RPMI-8226 leukemia. The TGI with RXF 393 renal was 33.4 µM; with SNB-19 CNS, greater than 100 µM; with SR leukemia, 39.5 µM; with UO-31 renal, greater than 100 µM.
In the case of `CNCc1ccc(-c2[nH]c3cc(F)cc4c3c2CCNC4=O)cc1`, the GI50 was 21.6 µM with A498 renal; 20 µM with KM12 colon; 8.9 µM in the assay with MCF7 breast; 20.8 µM in the assay on NCI-H23 lung; 69.2 µM with NCI/ADR-RES ovarian; 23.7 µM in the assay on RPMI-8226 leukemia. Besides, the GI50 with RXF 393 renal was 12.3 µM; with SNB-19 CNS, 17.3 µM; in the assay on SR leukemia, 9.51 µM; in the assay on UO-31 renal, 22.2 µM. Besides, the TGI in the assay on A498 renal was 53.8 µM; in the assay with KM12 colon, 45.3 µM; in the assay with MCF7 breast it was 35.5 µM; in the assay with NCI-H23 lung it was greater than 56.7 µM; in the assay with NCI/ADR-RES ovarian it was greater than 100 µM; in the assay on RPMI-8226 leukemia it was 73.3 µM. Moreover, the TGI with RXF 393 renal was found to be 26.2 µM; with SNB-19 CNS it was 57 µM; in the assay with SR leukemia, 44 µM; in the assay with UO-31 renal, 76.2 µM.
For the compound `C#CC#CC#CC#CC#CC#CC#CC#CC[C@@H]1OC[C@@H](COC(=O)O[C@@H](C(=O)O[C@H]2C[C@@]3(O)[C@@H](OC(=O)c4ccccc4)[C@@H]4[C@]5(OC(C)=O)CO[C@@H]5C[C@H](O)[C@@]4(C)C(=O)[C@H](OC(C)=O)C(=C2C)C3(C)C)[C@@H](NC(=O)c2ccccc2)c2ccccc2)O1`, the GI50 in the assay with A498 renal is 0.332 µM; in the assay on KM12 colon it was 0.191 µM; in the assay with MCF7 breast, 0.0872 µM; in the assay on NCI-H23 lung it was 1.04 µM; in the assay on NCI/ADR-RES ovarian, greater than 33.3 µM; with RPMI-8226 leukemia it was 0.109 µM. In addition, the GI50 is 0.471 µM with RXF 393 renal, 1.08 µM with SNB-19 CNS, 0.16 µM in the assay with SR leukemia and 3.39 µM in the assay on UO-31 renal. Besides, the TGI with A498 renal is greater than 6.73 µM; with KM12 colon, greater than 33.3 µM; with MCF7 breast, greater than 33.3 µM; in the assay with NCI-H23 lung, greater than 33.3 µM; with NCI/ADR-RES ovarian, greater than 33.3 µM; in the assay on RPMI-8226 leukemia, greater than 33.3 µM. The TGI was 2.39 µM in the assay with RXF 393 renal, greater than 33.3 µM in the assay with SNB-19 CNS, greater than 33.3 µM with SR leukemia and greater than 33.3 µM with UO-31 renal.
As to `CCCCC[C@@H](C/C=C/CCC(=O)NC/C(=C/Cl)[C@H]1C(=O)C(C)(C)C(=O)[C@@H](C)[C@@]1(C)O)OC`, the GI50 in the assay on A498 renal is 26 µM; in the assay with KM12 colon, 17.5 µM; in the assay on MCF7 breast, 19.2 µM; in the assay on NCI-H23 lung, 17 µM; with NCI/ADR-RES ovarian it was 20.8 µM; in the assay with RPMI-8226 leukemia, 6.23 µM. The GI50 was 17.4 µM in the assay with RXF 393 renal, 20.3 µM in the assay with SNB-19 CNS, 20.7 µM in the assay on SR leukemia and 15.4 µM with UO-31 renal. Further, the TGI in the assay on A498 renal stood at 55 µM; in the assay with KM12 colon it was 32.7 µM; in the assay with MCF7 breast, 38.8 µM; with NCI-H23 lung it was 33.9 µM; with NCI/ADR-RES ovarian it was 41.3 µM; in the assay with RPMI-8226 leukemia, 23 µM. For the same compound, the TGI with RXF 393 renal came to 34.2 µM; in the assay on SNB-19 CNS it was 42 µM; in the assay on SR leukemia, 41.3 µM; with UO-31 renal it was 28.8 µM.
As to `O=NN(CCCl)C(=O)NC1CCCCC1`, the TGI with A498 renal is 155 µM; with KM12 colon, 47.4 µM and 158 µM and 200 µM; with MCF7 breast, 117 µM; with NCI-H23 lung, 152 µM and 235 µM; in the assay with NCI/ADR-RES ovarian, 186 µM; with RPMI-8226 leukemia it was 40.8 µM and 122 µM and 73.9 µM. The TGI with RXF 393 renal is 32.9 µM and 102 µM and 143 µM; in the assay with SNB-19 CNS, 118 µM and 194 µM; in the assay with UO-31 renal, 54.6 µM and 168 µM and 206 µM. Moreover, the GI50 is 17.5 µM and 82.1 µM in the assay on KM12 colon; 116 µM in the assay with NCI-H23 lung; 27.1 µM in the assay on RPMI-8226 leukemia; 18.1 µM and 76.4 µM in the assay on RXF 393 renal; 9.14 µM in the assay on SR leukemia; 22 µM and 52.9 µM in the assay with UO-31 renal.
Consider `COc1c(O)c2c3c(c1OC)-c1ccccc1CC3N(S(=O)(=O)c1ccc(C)cc1)CC2` (stereo unspecified), for which the GI50 in the assay on A498 renal was 0.372 µM; in the assay with KM12 colon, 1.76 µM; with MCF7 breast it was 1.65 µM; with NCI-H23 lung it was 1.17 µM; in the assay on NCI/ADR-RES ovarian it was 1.49 µM; in the assay on RPMI-8226 leukemia, 1.51 µM. Besides, the GI50 in the assay with RXF 393 renal was 1.34 µM; in the assay on SNB-19 CNS, 3.29 µM; in the assay on SR leukemia, 1.36 µM; in the assay with UO-31 renal it was 2.02 µM. In addition, the TGI with A498 renal was 5.54 µM; in the assay on KM12 colon, greater than 50 µM; in the assay with MCF7 breast, 23.5 µM; in the assay with NCI-H23 lung it was 2.71 µM; with NCI/ADR-RES ovarian, 4.54 µM; in the assay on RPMI-8226 leukemia it was 4.25 µM. Moreover, the TGI with RXF 393 renal was 4.12 µM; in the assay with SNB-19 CNS it was greater than 50 µM; in the assay on SR leukemia it was 7.09 µM; with UO-31 renal, greater than 50 µM.
Turning to `Cc1nc2c(Br)cc(Br)cc2c(=O)n1-c1ccccc1NC1OCC(O)C(O)C1O` (stereo unspecified), the GI50 is 87.2 µM and 18.3 µM in the assay with A498 renal; 28.4 µM and 3.7 µM in the assay on MCF7 breast; 43.3 µM and > 100 µM with NCI/ADR-RES ovarian; 28.5 µM and 9.26 µM with RPMI-8226 leukemia; 33.2 µM and 12.5 µM in the assay on RXF 393 renal; 13.2 µM and 6 µM with SR leukemia. The TGI was > 100 µM and 45.6 µM with A498 renal; 67 µM in the assay with KM12 colon; greater than 100 µM in the assay on MCF7 breast; greater than 100 µM in the assay on NCI-H23 lung; greater than 100 µM in the assay with NCI/ADR-RES ovarian; > 100 µM and 41.7 µM with RPMI-8226 leukemia. Further, the TGI with RXF 393 renal was > 100 µM and 49.2 µM; in the assay on SNB-19 CNS, greater than 100 µM; in the assay with SR leukemia, 41 µM and 13.6 µM; with UO-31 renal it was greater than 100 µM.
